PubChem BioAssay (NCI)
Where “and” joins values, the source holds several entries; their conditions need not be identical. Identical values can stand only once.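 48-hour exposure; five concentrations; linearly interpolated endpoints. The concentration for 50% growth inhibition is given as GI50. TGI marks complete inhibition of growth.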

Assays:
Experiment in all cases: inhibition of tumour cell growth, NCI panel, 48 h
[1] = system: OVCAR-4 ovarian
[2] = system: ACHN renal
[3] = system: NCI-H460 lung
[4] = system: HCT-116 colon
[5] = system: A498 renal
[6] = system: SR leukemia
[7] = system: CAKI-1 renal
[8] = system: OVCAR-5 ovarian
[9] = system: SN12C renal
[10] = system: SF-539 CNS

| SMILES | GI50 [1] [µM] | TGI [1] | GI50 [2] [µM] | TGI [2] [µM] | GI50 [3] | TGI [3] | GI50 [4] [µM] | TGI [4] [µM] | GI50 [5] [µM] | TGI [5] | GI50 [6] [µM] | TGI [6] [µM] | GI50 [7] [µM] | TGI [7] [µM] | GI50 [8] [µM] | TGI [8] [µM] | GI50 [9] [µM] | TGI [9] [µM] | GI50 [10] | TGI [10] |
| --- | --- | --- | --- | --- | --- | --- | --- | --- | --- | --- | --- | --- | --- | --- | --- | --- | --- | --- | --- | --- |
| CC1(C)C(=O)/C(=C\c2cccnc2)C[C@]2(C)[C@H]3CC[C@@H]4[C@H]5[C@H](C(=O)/C=C/c6cccnc6)CC[C@]5(C(=O)O)CC[C@@]4(C)[C@]3(C)CC[C@@H]12 | 4.37 | > 100 µM | 1.69 | 3.06 | 2.12 µM | 6.69 µM | 1.61 | 3.56 | 1.92 | 3.44 µM | 2.03 | 29.7 | 1.66 | 3.38 | 2.44 | 4.88 | 2.79 | 9.76 | 1.9 µM | 3.92 µM |
| CC(C)c1c(O)c(O)c2c(c1O)C(=O)C(O)=C1C(C)(C)CCC[C@@]12C |  | 16.7 µM |  | 11.3 |  | 10.1 µM |  | 11.2 |  | 11.9 µM |  | 6.59 |  | 6.34 |  | 19.5 |  | 18.7 |  | 14.8 µM |
| COc1ccc(-c2[nH]c3ccc(OC)cc3c2/C=C(\C#N)S(=O)(=O)c2ccccc2)cc1 | 2.09 | > 100 µM | 1.79 | > 100 | 0.659 µM | > 26 µM | 0.53 | > 100 | 0.966 | 8.18 µM | 0.305 | 2.6 | 4.22 | > 100 | 3.85 | > 100 | 2.2 | > 100 | 0.495 µM | 2.51 µM |
| CC1=CC(C)(C)N=C2SC(c3ccc(N)cc3)=NN12 |  | > 100 µM |  | > 100 |  | > 100 µM |  | > 100 |  | > 100 µM |  | > 72.1 |  | > 100 |  | > 100 |  | > 100 |  | > 100 µM |
| CN1CCN(CCCNc2nc3ccc(Oc4ccc(NC(=O)Nc5cc(C(F)(F)F)ccc5F)cc4)cc3[nH]2)CC1 | 5.88 | > 19.5 µM | 17.5 | > 25 | 4.37 µM | 8.4 µM | 4.28 | 7.99 | 2.93 | > 18.9 µM | 6.33 | > 16.8 | > 25 | > 25 | 6.75 | > 20.7 | 4.77 | 11.2 | 4.22 µM | 8.52 µM |
| CCCCCCCCCCCCCCCC(=O)OCC(C[As](=O)(O)O)OC(=O)CCCCCCCCCCCCCCC (configuration not stated) |  | > 100 µM |  | > 100 |  | > 100 µM |  | > 100 |  | > 100 µM |  | > 100 |  | > 100 |  | > 100 |  | > 100 |  | > 100 µM |
| COCC[C@H]1CCC/C=C/[C@@H]2C[C@H](O)C[C@H]2[C@H](O)/C=C/C(=O)O1 | 0.0528 |  | 0.319 | > 100 | 0.39 µM | > 100 µM | 0.149 | 0.332 | 0.0231 | 0.107 µM | 0.141 |  | 0.36 |  | 0.247 | > 100 | 0.274 | > 100 | 0.213 µM | > 100 µM |
| COc1cc(OC)c(C(=O)/C=C/c2cccc(C(F)(F)F)c2)c(OC)c1 | 2.24 | 8.57 µM | 1.46 | 5.17 | 1.08 µM | 2.67 µM | 0.806 | 1.59 | 1.4 | 4.44 µM | 0.826 | 3.13 | 2.17 | 7.22 | 2.28 | 7.04 | 1.52 | 5.68 | 1.37 µM | 3.5 µM |
| C=C1C(=O)O[C@H]2[C@H]1CC/C(COC(=O)NCCCCNC(=O)OC/C1=C/CC[C@@]3(C)O[C@H]3[C@H]3OC(=O)C(=C)[C@@H]3CC1)=C\CC[C@@]1(C)O[C@@H]21 | 1.77 | 8.53 µM | 3.44 | 12.9 | 4.61 µM | 18 µM | 1.12 | 2.63 | 6.36 | 18.9 µM | 0.549 | 3.51 | 10.8 | 23 | 1.75 | 3.69 | 2.75 | 10.1 | 1.55 µM | 3.71 µM |
| O=C(CC(=O)n1nc(-c2ccccc2)c(N=Nc2ccc(Cl)cc2)c1-c1ccccc1)Nc1ccc(Cl)cc1 |  | > 100 µM |  | > 100 |  | > 59.4 µM |  | > 55.1 |  | > 100 µM |  | > 100 |  | > 100 |  | > 100 |  | > 100 |  | > 100 µM |
| COC(=O)C(Cc1nc2ccccc2[nH]c1=O)C(NO)C(=O)Nc1c(Cl)cc([N+](=O)[O-])cc1Cl (configuration not stated) |  | > 100 µM |  | > 100 |  | 44.7 µM |  | 47.9 |  | 46.5 µM |  | > 100 |  | > 100 |  |  |  | > 100 |  | 56.5 µM |
| c1cnn(CN(Cn2cccn2)Cn2cccn2)c1 |  | > 100 µM |  | > 100 |  | > 100 µM |  | > 100 |  | > 100 µM |  | > 100 |  | > 100 |  |  |  | > 100 |  | > 100 µM |
| O=C(c1cccc2ccccc12)N1CCC(C2CCN(C(=O)c3cccc4ccccc34)CC2)CC1 |  |  |  | > 100 |  | > 100 µM |  | > 100 |  | > 100 µM |  | > 100 |  | > 100 |  | > 100 |  | > 100 |  | > 100 µM |
| COc1cc(Cc2nccc3cc(OC)c(OC)cc23)c(C(C)=O)cc1OC | 13.2 | 52.3 µM and 197 µM |  | 429 | 52.9 µM and 85.5 µM and 340 µM | 300 µM and > 750 µM |  |  | 204 | > 300 µM and 507 µM |  | > 750 | > 750 | > 750 | 204 | > 750 |  | 30 | 85.3 µM and 19.9 µM | > 94.9 µM and 66.1 µM |
| COc1ccc(/C=C/c2c(C(=O)/C=C/c3ccccc3)c(C)nc3ccccc23)cc1 | 2.27 | 6.85 µM | 1.68 | 3.1 |  |  | 1.03 | 2.6 | 1.7 | 3.15 µM | 1.56 | 7.19 | 1.41 | 2.82 | 1.91 | 3.65 | 2.05 | 4.63 | 1.76 µM | 3.2 µM |
